Legend:
B16 (melanoma/mouse) = experiment: In vitro cytotoxicity (MTT cell survival), B16; format: cell-based; conditions: B16, 96 h exposure; for IC50: Mus musculus
Description: (§1) Cells were passaged two to three times per week. Cellular viability was examined by staining with trypan blue and only flasks where cell viability was >95% were used to determine cytotxicity.
(§2) Exponentially growing cells (1-3×10^3 cells per 100 μl) were seeded in 96-well plates and incubated for 16 h. Cells were then exposed continuously to various concentrations of compounds of Formula I in serum-supplemented medium. Cell survival was evaluated 96 h later by replacing the culture media with 150 μl fresh medium containing 10 mM 4-(2-hydroxyethyl)-1-piperazineethanesulfonic acid buffer, pH 7.4. Next, 50 μl of 2.5 mg/ml of 3-(4,5-dimethylthiazo-2-yl)-2,5-diphenyltetrazolium bromide (MTT; Sigma, St. Louis, Mo.) in phosphate buffer solution, pH 7.4, was added. After 3-4 h of incubation at 37° C., the medium and MTT was removed, and 200 μl of dimethylsulfoxide was added to dissolve the precipitate of reduced MTT followed by addition of 25 μl glycine buffer (0.1 M glycine plus 0.1 M NaCl, pH 10.5). The absorbance was determined at 570 nm with a microplate reader (BIORAD). Cell survival was estimated as % of cells treated with the vehicle alone.

[1] = test system: SF-295 (glioblastoma/human); experiment: In vitro cytotoxicity (MTT cell survival), SF-295; format: cell-based; conditions: SF-295, 96 h exposure; for IC50: Homo sapiens
Description: as §1, §2

[2] = test system: MDA-MD-231 (breast/human); experiment: In vitro cytotoxicity (MTT cell survival), MDA-MD-231; format: cell-based; conditions: MDA-MD-231, 96 h exposure; for IC50: Homo sapiens, mean from 3 independent experiments
Description: as §1, §2

EKVX (lung/human) = experiment: In vitro cytotoxicity (MTT cell survival), EKVX; format: cell-based; conditions: 96 h exposure; for IC50: Homo sapiens
Description: as §1, §2

P388 (leukemia/mouse) = experiment: In vitro cytotoxicity (MTT cell survival), P388; format: cell-based; conditions: P388, 96 h exposure; for IC50: Mus musculus
Description: as §1, §2

PC3 (prostate/human) = experiment: In vitro cytotoxicity (MTT cell survival), PC3; format: cell-based; conditions: PC3, 96 h exposure; for IC50: Homo sapiens, mean from 3 independent experiments
Description: as §1, §2

HCT116 (colon/human) = experiment: In vitro cytotoxicity (MTT cell survival), HCT116; format: cell-based; conditions: for In Vitro Cytotoxicity Data (Log M): HCT116, 96 h exposure; for IC50: Homo sapiens, HCT-116, HCT116, 96 h exposure, mean from 3 independent experiments
Description: as §1, §2

T24 (bladder/human) = experiment: In vitro cytotoxicity (MTT cell survival), T24; format: cell-based; conditions: T24, 96 h exposure; for IC50: Homo sapiens
Description: as §1, §2

A498 (renal/human) = experiment: In vitro cytotoxicity (MTT cell survival), A498; format: cell-based; conditions: A498, 96 h exposure; for IC50: Homo sapiens, mean from 3 independent experiments
Description: as §1, §2

[3] = In vitro cytotoxicity (MTT cell survival), HRE; format: cell-based, human; conditions: human, HRE normal renal cells, 96 h exposure
Description: as §1, §2

[4] = test system: HRE (renal/normal, human); experiment: In vitro cytotoxicity (MTT cell survival), HRE; format: cell-based; conditions: HRE normal renal cells, 96 h exposure
Description: as §1, §2

With COC(=O)C(C(C)OC)N(C)C(=O)C1(N(O)C(=O)/C=C/C=C/C=C/C=C\CNC(=O)C(C)(C)C(O)\C(C)=C/C=C\C=C\Cc2cnco2)COCO1 (stereo not shown) [Compound 1] the “In Vitro Cytotoxicity Data (Log M)” value (B16 (melanoma/mouse)) was “(Log −4.34 M) Log M”, the IC50 (B16 (melanoma/mouse)) was 44.8 µM and the IC50 [1] was 27.1 µM. The “In Vitro Cytotoxicity Data (Log M)” value [1] was “(Log −4.56 M) Log M”, the IC50 [2] was 12.9 µM and the “In Vitro Cytotoxicity Data (Log M)” value [2] was “(Log −4.88 M) Log M”. The “In Vitro Cytotoxicity Data (Log M)” value (EKVX (lung/human)) was “(Log −4.42 M) Log M”, the IC50 (EKVX (lung/human)) was 37.4 µM and the IC50 (P388 (leukemia/mouse)) was 6.3 µM. The “In Vitro Cytotoxicity Data (Log M)” value (P388 (leukemia/mouse)) was “(Log −5.19 M) Log M”, the IC50 (PC3 (prostate/human)) was 20.7 µM and the “In Vitro Cytotoxicity Data (Log M)” value (PC3 (prostate/human)) was “(Log −4.69 M) Log M”. For the same compound, the “In Vitro Cytotoxicity Data (Log M)” value (HCT116 (colon/human)) was “(Log −4.60 M) Log M”, the IC50 (HCT116 (colon/human)) was 24.8 µM and the IC50 (T24 (bladder/human)) was 30.5 µM. For the same compound, the “In Vitro Cytotoxicity Data (Log M)” value (T24 (bladder/human)) was “(Log −4.51 M) Log M”, the “In Vitro Cytotoxicity Data (Log M)” value (A498 (renal/human)) was “(Log −4.78 M) Log M” and the IC50 (A498 (renal/human)) was 15.6 µM. The IC50 at 96 h [3] was 8.8 µM and the “In Vitro Cytotoxicity Data (Log M)” value [4] was “(Log −5.05 M) Log M”.

With COC(=O)C(C(C)OC)N(C)C(=O)C1(N(O)C(=O)/C=C/C=C/C=C/C=C\CNC(=O)C(C)(C)C(O)\C(C)=C/C=C\C=C\Cc2cnc(C)o2)COCO1 (stereo not shown) [Compound 2] the “In Vitro Cytotoxicity Data (Log M)” value (B16 (melanoma/mouse)) was “(Log −4.34 M) Log M”, the IC50 (B16 (melanoma/mouse)) was 45.5 µM and the IC50 [1] was 17.5 µM. The “In Vitro Cytotoxicity Data (Log M)” value [1] was “(Log −4.75 M) Log M”, the IC50 [2] was 13.2 µM and the “In Vitro Cytotoxicity Data (Log M)” value [2] was “(Log −4.88 M) Log M”. The “In Vitro Cytotoxicity Data (Log M)” value (EKVX (lung/human)) was “(Log −4.62 M) Log M”, the IC50 (EKVX (lung/human)) was 23.9 µM and the IC50 (P388 (leukemia/mouse)) was 8.1 µM. The “In Vitro Cytotoxicity Data (Log M)” value (P388 (leukemia/mouse)) was “(Log −5.05 M) Log M”, the IC50 (PC3 (prostate/human)) was 20.7 µM and the “In Vitro Cytotoxicity Data (Log M)” value (PC3 (prostate/human)) was “(Log −4.67 M) Log M”. For the same compound, the “In Vitro Cytotoxicity Data (Log M)” value (HCT116 (colon/human)) was “(Log −4.56 M) Log M”, the IC50 (HCT116 (colon/human)) was 27.5 µM and the IC50 (T24 (bladder/human)) was 18.9 µM. For the same compound, the “In Vitro Cytotoxicity Data (Log M)” value (T24 (bladder/human)) was “(Log −4.72 M) Log M”, the “In Vitro Cytotoxicity Data (Log M)” value (A498 (renal/human)) was “(Log −4.88 M) Log M” and the IC50 (A498 (renal/human)) was 13.1 µM. For the same compound, the IC50 at 96 h [3] was 20.2 µM and the “In Vitro Cytotoxicity Data (Log M)” value [4] was “(Log −4.69 M) Log M”.

Source: patent US7312339B2, “Polyene oxazoles and processes for their preparation” (Thallion Pharmaceuticals Inc., priority 2003, dated 2007)
